Patent US4146622A, “Aziridinyl quinone anti-transplanted tumor agents” (priority 1977, dated 1979)
Converted amounts (≈) assume the structure as drawn. “And” between values parts separate entries of the source, which are not always exact repeats. Identical values can stand only once. “Also recorded” adds a separate entry of the source. Like-named read-outs stand apart in the source and are kept apart here.

Key:
[1] = test system: P388 lymphocytic leukemia; assay: Intraperitoneal (IP) lymphocytic leukemia P388 transplanted mouse tumor test; format: in vivo, murine
[2] = test system: IP ascites tumor systems (leukemia L1210 and P388); assay: IP ascites tumor systems (leukemia L1210 and P388); format: in vivo, murine
Description: (§1) The criterion for minimum activity, %ILS, is defined here as follows: Intraperitoneal and intracerebral leukemia L1210 and intraperitoneal leukemia P388, 25%; intraperitoneal B16 melanoma and intracerebral ependymoblastoma, 40%. Consistent with NCI antitumor test protocols, intraperitoneal (IP) administration of the drug was employed with all five tumor systems investigated. Tumor implantation was IP in the systems designated IP leukemia L1210 and P388 as well as B16 melanoma. Intracerebral (IC) tumor implantation was utilized in the IC L1210 and ependymoblastoma tumor systems.

lymphoid leukemia L1210 [3] = assay: Intraperitoneal (IP) lymphoid leukemia L1210 transplanted mouse tumor test; format: in vivo, murine; conditions: for ILS (increase in life span) / T - C (average weight change of test group minus control): Table II; for T - C (average weight change of test group minus control): day 5
Description: ^(a) Day 1-9 treatment schedule (9 injections)
^(b) Day 1,5,9 treatment schedule (3 injections)
^(c) Day 1 only treatment schedule (1 injection)
^(f) Percentage increase in life span of treated animals [(treated
survival .div. control survival) × 100%] - 100%

[4] = Octanol/H2O partition coefficient (log P); format: physicochemical; conditions: partition coefficient measured
Description: ^(b) Octanol/H2 O values determined by C. Hansch and M. Yamakawa

[5] = test system: P388 lymphocytic leukemia; assay: Intracerebral (IC) lymphocytic leukemia P388 test; format: in vivo, murine; conditions: for ILS (increase in life span): Table III
Description: ^b Ic tumor implantation, ip QD1-9 treatment schedule.
Central nervous system antitumor activity is given in Table III for the intracerebrally implanted L1210, P388, and ependymoblastoma tumor systems.
All three CNS tumor models (Table III) use intracerebral (IC) tumor implantation and IP treatment.

[6] = test system: transplanted mouse tumor test systems; assay: Transplanted mouse tumor test systems (overall statement); format: in vivo, murine
Description: The criterion for minimum activity is defined here as follows: intraperitoneal and intracerebral L1210 leukemia, 25%; intraperitoneal and intracerebral P388 leukemia, 25%; B16 melanoma, 40%; Lewis lung carcinoma, 25%; and intracerebral ependymoblastoma, 40%.
The L1210, P388 and B16 test systems described in Table II utilize intraperitoneal (IP) tumor implantation and IP drug treatment while the Lewis lung system employs subcutaneous tumor implantation and IP treatment. All three CNS tumor models (Table III) use intracerebral (IC) tumor implantation and IP treatment.
as §1

Lewis lung carcinoma = assay: Lewis lung carcinoma, subcutaneous tumor implantation; format: in vivo, murine
Description: ^c Subcutaneous tumor implantation, ip QD5-15 treatment schedule.
The L1210, P388 and B16 test systems described in Table II utilize intraperitoneal (IP) tumor implantation and IP drug treatment while the Lewis lung system employs subcutaneous tumor implantation and IP treatment.

[7] = Room temperature water solubility; format: physicochemical
Summary of the method: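 Water added incrementally by pipet, with shaking, to a weighed amount of compound at room temperature until dissolved; values are approximate.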

B16 melanocarcinoma = assay: Intraperitoneal B16 melanocarcinoma transplanted mouse tumor test; format: in vivo, murine; conditions: for ILS (increase in life span): Table II
ependymoblastoma = assay: Intracerebral (IC) ependymoblastoma (EM) brain tumor test; format: in vivo, murine; conditions: for ILS (increase in life span) / T - C (average weight change of test group minus control) / Cures (animals alive per six on day of termination): Table III; for ILS (increase in life span) / T - C (average weight change of test group minus control): ic ependymoblastoma; for T - C (average weight change of test group minus control): day 5
lymphoid leukemia L1210 [8] = assay: Intracerebral (IC) lymphoid leukemia L1210 test; format: in vivo, murine; conditions: for ILS (increase in life span): Table III
[9] = IP L1210, ip QD1-9, 0.88 mg/kg/injection
[10] = IP L1210, ip QD1-9, 1.30 mg/kg/injection
[11] = IP L1210, ip QD1-9, 6.25 mg/kg/injection
[12] = ip QD1-5, 1.00 mg/kg/injection, expt 133 (day 99)
[13] = ip QD1-5, 1.00 mg/kg/injection, expts 136 and 144 (day 60)
[14] = ip QD1-5, 2.00 mg/kg/injection, expt 133 (day 99)
[15] = ip QD1-5, 2.00 mg/kg/injection, expts 136 and 144 (day 60)
[16] = ip QD1-5, 4.00 mg/kg/injection, expt 136 (day 60)

Question: Which results are given for `CCOC(=O)NC1=C(N2CC2)C(=O)C(NC(=O)OCC)=C(N2CC2)C1=O` [Compound 9, 2,5-Diaziridinyl-3,6-bis (carboethoxyamino)-1,4-benzoquinone]?
Answer: OD (optimum dose) ([1]; IP P388): 1 to 2 mg/kg; antitumor activity ([1]; IP P388): very active; ILS (increase in life span) ([1]; Table II, IP P388, ip QD1-9, 0.78 mg/kg/injection): 111% and 99% and 112%; ILS (increase in life span) ([1]; Table II, IP P388, ip QD1-9, 1.56 mg/kg/injection): 138% and 135% and 112%; T - C (average weight change of test group minus control) ([1]; Table II, IP P388, ip QD1-9, 6.25 mg/kg/injection, day 5): -6.1 grams; OD (optimum dose) ([1]; Table IV, (IP) P388, QD1-9): 1.6 mg/kg/injection and 0.8 mg/kg/injection; % ILS ([1]; Table IV, (IP) P388, QD1-9, at OD): 138% and 135% and 112%; survivors of 6 test mice on experiment termination day ([1]; Table IV, (IP) P388, QD1-9, at OD, day 30): 1; ILS (%) P388 ([1]; Table XI, outstanding activity): 138%; survivors (number in parentheses) P388 ([1]; Table XI, per 6 test animals, day 30): 1; antitumor activity [2]: does not give multiple cures; activity (%ILS) (lymphoid leukemia L1210 [3]; IP L1210, Q4D schedule): 54%; optimum dose (lymphoid leukemia L1210 [3]; IP L1210, Q4D schedule): 6.25 mg/kg; optimum dose (OD) (lymphoid leukemia L1210 [3]; IP L1210, QD1-9): 2 to 3 mg/kg; therapeutic ratio (TR, highest active dose divided by lowest active dose) (lymphoid leukemia L1210 [3]; IP L1210, QD1-9): approximately 4; increase in life span (ILS) (lymphoid leukemia L1210 [3]; L1210, Q4D and QD1-9 schedules): > 25%; antitumor activity (lymphoid leukemia L1210 [3]; L1210 system, Q4D and QD1-9 schedules): very active; ILS (increase in life span) (lymphoid leukemia L1210 [3]; [9]): 32%; T - C (average weight change of test group minus control) (lymphoid leukemia L1210 [3]; [9]): -1.4 grams; ILS (increase in life span) (lymphoid leukemia L1210 [3]; [10]): 60%; T - C (average weight change of test group minus control) (lymphoid leukemia L1210 [3]; [10]): -2.3 grams; ILS (increase in life span) (lymphoid leukemia L1210 [3]; IP L1210, ip QD1-9, 2.00 mg/kg/injection): 101% and 125%; ILS (increase in life span) (lymphoid leukemia L1210 [3]; [11]): 27%; T - C (average weight change of test group minus control) (lymphoid leukemia L1210 [3]; [11]): -4.1 grams; T - C (average weight change of test group minus control) (lymphoid leukemia L1210 [3]; IP L1210, ip QD1-9, 12.50 mg/kg/injection): -5.0 grams; OD (optimum dose) (lymphoid leukemia L1210 [3]; Table IV, (IP) L1210, QD1-9): 3 mg/kg/injection and 2 mg/kg/injection and 4 mg/kg/injection; % ILS (lymphoid leukemia L1210 [3]; Table IV, (IP) L1210, QD1-9, at OD): 169% and 113% and 101% and 100%; ILS (%) IP L1210 (lymphoid leukemia L1210 [3]; Table XI, outstanding activity): 169%; ILS (lymphoid leukemia L1210 [3]; standard IP L1210 test, QD1-9): > 100%; log P [4]: 0.05; antitumor activity ([5]; IC P388): substantial; ILS (increase in life span) ([5]; ic P388, ip QD1-9, 0.39 mg/kg/injection): 7% and 2%; ILS (increase in life span) ([5]; ic P388, ip QD1-9, 0.78 mg/kg/injection): 27% and 25%; ILS (increase in life span) ([5]; ic P388, ip QD1-9, 1.56 mg/kg/injection): 37% and 51%; ILS (increase in life span) ([5]; ic P388, ip QD1-9, 3.12 mg/kg/injection): 39% and 31%; OD (optimum dose) ([5]; Table IV, (IC) P388, QD1-9): 1.5 mg/kg/injection and 3 mg/kg/injection; % ILS ([5]; Table IV, (IC) P388, QD1-9, at OD): 51% and 39%; toxicity [6]: reasonably toxic material; antitumor activity ([6]; IC and other transplanted mouse tumor systems): very substantial activity; also recorded: Antitumor activity was observed; also recorded: intracerebral (IC) as well as IP antitumor activity; TR (therapeutic ratio) ([6]; last three systems (P388, B16, Lewis lung)): 3-4; antitumor activity (Lewis lung carcinoma; Lewis lung): Marginal activity; ILS (increase in life span) (Lewis lung carcinoma; Table II, sc Lewis lung, ip QD5-15, 2.00 mg/kg/injection): 38% and 34%; solubility [7]: appeared to be adequate; solubility ([7]; water, approximate, read-out: aqueous solubility): ~500 µg/mL (≈ 1370 µM); OD (optimum dose) (B16 melanocarcinoma; B16): 3.12 mg/kg; antitumor activity (B16 melanocarcinoma; B16 melanoma): very active; B16 melanoma activity (ILS) (B16 melanocarcinoma; OD of 3.12 mg/kg): ≤ 70%; ILS (increase in life span) (B16 melanocarcinoma; B16, ip QD1-9, 1.56 mg/kg/injection): 38% and 44% and 58%; ILS (increase in life span) (B16 melanocarcinoma; B16, ip QD1-9, 3.12 mg/kg/injection): 58% and 43% and 70%; OD (optimum dose) (B16 melanocarcinoma; Table IV, (IP) B16, QD1-9): 3 mg/kg/injection; % ILS (B16 melanocarcinoma; Table IV, (IP) B16, QD1-9, at OD): 94% and 70% and 62%; ILS (%) B16 (B16 melanocarcinoma; Table XI, outstanding activity): 70%; antitumor activity (ependymoblastoma; IC ependymoblastoma (EM)): curative; also recorded: very active; ILS (increase in life span) (ependymoblastoma; ip QD1-5, 0.25 mg/kg/injection): 30%; T - C (average weight change of test group minus control) (ependymoblastoma; ip QD1-5, 0.25 mg/kg/injection): -1.5 grams; ILS (increase in life span) (ependymoblastoma; ip QD1-5, 0.50 mg/kg/injection): 62%; T - C (average weight change of test group minus control) (ependymoblastoma; ip QD1-5, 0.50 mg/kg/injection): -1.8 grams; ILS (increase in life span) (ependymoblastoma; [12]): 348%; ILS (increase in life span) (ependymoblastoma; [13]): 126% and 171%; ILS (increase in life span) (ependymoblastoma; [14]): 349%; ILS (increase in life span) (ependymoblastoma; [15]): 277% and 171%; ILS (increase in life span) (ependymoblastoma; [16]): 276%; T - C (average weight change of test group minus control) (ependymoblastoma; ip QD1-5, 8.00 mg/kg/injection): -5.0 grams; Cures (animals alive per six on day of termination) (ependymoblastoma; [12]): 3/6; Cures (animals alive per six on day of termination) (ependymoblastoma; [13]): 1/6 and 5/6; Cures (animals alive per six on day of termination) (ependymoblastoma; [14]): 4/6; Cures (animals alive per six on day of termination) (ependymoblastoma; [15]): 5/6; Cures (animals alive per six on day of termination) (ependymoblastoma; [16]): 4/6; OD (optimum dose) (ependymoblastoma; Table IV, (IC) ependymoblastoma, QD1-5): 2 mg/kg/injection and 1 mg/kg/injection; % ILS (ependymoblastoma; Table IV, (IC) ependymoblastoma, QD1-5, at OD): > 277% and > 202% and > 172% and > 171%; survivors of 6 test mice on experiment termination day (ependymoblastoma; Table IV, (IC) ependymoblastoma, QD1-5, at OD, day 60): 5 and 4 and 6; survivors (number in parentheses) EM (ependymoblastoma; Table XI, per 6 test animals, day 60): 5; TR (therapeutic ratio) (ependymoblastoma; ependymoblastoma): 4-8; optimum dose (ependymoblastoma; ependymoblastoma): 1 to 2 mg/kg; survival (ependymoblastoma; experiment 133, 2.0 mg/kg, day 99): A majority of the test animals were alive on day 99; OD (optimum dose) (lymphoid leukemia L1210 [8]; IC L1210): 3.12 mg/kg; antitumor activity (lymphoid leukemia L1210 [8]; IC L1210): substantial; ILS (lymphoid leukemia L1210 [8]; IC L1210, OD 3.12 mg/kg): 79% and 84%; ILS (increase in life span) (lymphoid leukemia L1210 [8]; ic L1210, ip QD1-9, 1.56 mg/kg/injection): 51% and 46%; ILS (increase in life span) (lymphoid leukemia L1210 [8]; ic L1210, ip QD1-9, 3.12 mg/kg/injection): 84% and 79%; ILS (increase in life span) (lymphoid leukemia L1210 [8]; ic L1210, ip QD1-9, 6.25 mg/kg/injection): 10% and 3%; OD (optimum dose) (lymphoid leukemia L1210 [8]; Table IV, (IC) L1210, QD1-9): 3 mg/kg/injection and 5 mg/kg/injection; % ILS (lymphoid leukemia L1210 [8]; Table IV, (IC) L1210, QD1-9, at OD): 84% and 79% and 63% and 58%; ILS (%) IC L1210 (lymphoid leukemia L1210 [8]; Table XI, outstanding activity): 84%
